Laboratory results from PubChem BioAssay AID248 (DTP/NCI, 2004).
Values joined by “and” are separate entries in the source; they are usually repeats but may differ in a detail not shown here. Identical values can stand only once. Toxic doses and inconclusive results are not listed. Cut-off read from the data, not from the text of the source: active = T/C of 150% or more; inactive = T/C below 125%.

System: L1210 leukemia ip in BDF1 mice, survival T/C
Experiment: NCI In Vivo Anticancer Drug Screen. Data for tumor model L1210 Leukemia (intraperitoneal) in B6D2F1 (BDF1) mice
Conditions: endpoint: mean survival time, higher = longer survival
How it was run: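 Each compound was tested against a transplantable tumor grown in mice. The endpoint was survival, with treated animals benchmarked against vehicle controls as a simple ratio.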

[1] = dose: 100.0 mg/kg/injection, schedule: Q01DX009 (ip), vehicle: Klucel (hydroxypropylcellulose) (HPC)
[2] = dose: 100.0 mg/kg/injection, schedule: Q04DX003 (ip), vehicle: Klucel (hydroxypropylcellulose) (HPC)
[3] = dose: 200.0 mg/kg/injection, schedule: Q01DX009 (ip), vehicle: Klucel (hydroxypropylcellulose) (HPC)
[4] = dose: 200.0 mg/kg/injection, schedule: Q04DX003 (ip), vehicle: Klucel (hydroxypropylcellulose) (HPC)
[5] = dose: 400.0 mg/kg/injection, schedule: Q01DX009 (ip), vehicle: Klucel (hydroxypropylcellulose) (HPC)
[6] = dose: 400.0 mg/kg/injection, schedule: Q04DX003 (ip), vehicle: Klucel (hydroxypropylcellulose) (HPC)
[7] = dose: 100.0 mg/kg/injection, schedule: Q01DX001 (ip), vehicle: other
[8] = dose: 200.0 mg/kg/injection, schedule: Q01DX001 (ip), vehicle: other
[9] = dose: 100.0 mg/kg/injection, schedule: Q04DX003 (ip), vehicle: saline with Tween-80
[10] = dose: 200.0 mg/kg/injection, schedule: Q04DX003 (ip), vehicle: saline with Tween-80
[11] = dose: 400.0 mg/kg/injection, schedule: Q04DX003 (ip), vehicle: saline with Tween-80
[12] = dose: 100.0 mg/kg/injection, schedule: Q01DX009 (ip), vehicle: saline with Tween-80
[13] = dose: 100.0 mg/kg/injection, schedule: Q04DX003 (ip), vehicle: saline

Measured: T/C

CCN(CCP(c1ccccc1)c1ccccc1)CCP(c1ccccc1)c1ccccc1
inactive: dose: 6.25 mg/kg/injection, schedule: Q01DX009 (ip), vehicle: Klucel (hydroxypropylcellulose) (HPC) 120 % of control | dose: 19.0 mg/kg/injection, schedule: Q01DX001 (ip), vehicle: other 120 % of control | dose: 25.0 mg/kg/injection, schedule: Q01DX009 (ip), vehicle: Klucel (hydroxypropylcellulose) (HPC) 122 % of control | dose: 25.0 mg/kg/injection, schedule: Q04DX003 (ip), vehicle: Klucel (hydroxypropylcellulose) (HPC) 106 % of control | dose: 38.0 mg/kg/injection, schedule: Q01DX001 (ip), vehicle: other 112 % of control | dose: 50.0 mg/kg/injection, schedule: Q01DX009 (ip), vehicle: Klucel (hydroxypropylcellulose) (HPC) 100 % of control and 117 % of control | dose: 50.0 mg/kg/injection, schedule: Q04DX003 (ip), vehicle: Klucel (hydroxypropylcellulose) (HPC) 116 % of control | [1] 111 % of control | [2] 122 % of control

O=C1CN=C(c2ccccc2Cl)c2cc([N+](=O)[O-])ccc2N1
inactive: dose: 100.0 mg/kg/injection, schedule: Q04DX002 (ip), vehicle: Klucel (hydroxypropylcellulose) (HPC) 93 % of control | dose: 200.0 mg/kg/injection, schedule: Q04DX002 (ip), vehicle: Klucel (hydroxypropylcellulose) (HPC) 108 % of control | dose: 400.0 mg/kg/injection, schedule: Q04DX002 (ip), vehicle: Klucel (hydroxypropylcellulose) (HPC) 86 % of control

O=[N+]([O-])c1cccc([N+](=O)[O-])c1Cl
inactive: dose: 100.0 mg/kg/injection, schedule: Q01DX001 (ip), vehicle: carboxymethylcellulose (CMC) 114 % of control | dose: 200.0 mg/kg/injection, schedule: Q01DX001 (ip), vehicle: carboxymethylcellulose (CMC) 108 % of control | dose: 400.0 mg/kg/injection, schedule: Q01DX001 (ip), vehicle: carboxymethylcellulose (CMC) 108 % of control

O=c1ccc(=O)n(-c2ccccc2)[nH]1
inactive: [1] 95 % of control | [2] 92 % of control | [3] 93 % of control | [4] 106 % of control | dose: 267.0 mg/kg/injection, schedule: Q04DX003 (ip), vehicle: Klucel (hydroxypropylcellulose) (HPC) 110 % of control | [5] 95 % of control | [6] 104 % of control | dose: 600.0 mg/kg/injection, schedule: Q04DX003 (ip), vehicle: Klucel (hydroxypropylcellulose) (HPC) 105 % of control

CC[C@H](CC[C@@H](C)[C@H]1CC[C@H]2[C@@H]3CC=C4C[C@@H](OC(=O)CSC(CC(=O)O)C(=O)O)CC[C@]4(C)[C@H]3CC[C@]12C)C(C)C (stereo partly specified)
inactive: dose: 100.0 mg/kg/injection, schedule: Q01DX001 (ip), vehicle: water 98 % of control | dose: 200.0 mg/kg/injection, schedule: Q01DX001 (ip), vehicle: water 86 % of control | dose: 400.0 mg/kg/injection, schedule: Q01DX001 (ip), vehicle: water 93 % of control

Cc1cc(C(=O)NN)c(C#N)c(=O)[nH]1
inactive: [7] 93 % of control | [8] 95 % of control | dose: 400.0 mg/kg/injection, schedule: Q01DX001 (ip), vehicle: other 97 % of control

O=c1[nH]cnc2c1ncn2Cc1ccc([N+](=O)[O-])cc1
inactive: [7] 96 % of control | [9] 102 % of control | [8] 98 % of control | [10] 96 % of control | [11] 94 % of control

CCSC(=O)N1c2ccc(C)cc2C=CC1C#N (stereo unspecified)
inactive: [12] 93 % of control | [9] 90 % of control | dose: 200.0 mg/kg/injection, schedule: Q01DX009 (ip), vehicle: saline with Tween-80 104 % of control | [10] 89 % of control | [11] 95 % of control

CCCCCCCc1cc(=O)n(-c2ccc([N+](=O)[O-])cc2)n1C
inactive: [2] 92 % of control | [4] 91 % of control | [6] 94 % of control

O=C(N=c1scc(-c2ccc(Br)cc2)n1-c1cccc2ccccc12)c1ccccc1F
inactive: dose: 25.0 mg/kg/injection, schedule: Q01DX009 (ip), vehicle: saline with Tween-80 89 % of control | dose: 50.0 mg/kg/injection, schedule: Q01DX009 (ip), vehicle: saline with Tween-80 87 % of control | [12] 93 % of control

Cc1ccc([N+](=O)[O-])cc1NC(=O)Nc1ccc(S(N)(=O)=O)cc1
inactive: [1] 97 % of control | [2] 96 % of control | [3] 98 % of control | [4] 92 % of control | [5] 103 % of control | [6] 91 % of control

CC(=O)Nc1ccc(S(=O)(=O)Oc2ccccc2)cc1
inactive: dose: 100.0 mg/kg/injection, schedule: Q04DX003 (ip), vehicle: alcohol 98 % of control | dose: 200.0 mg/kg/injection, schedule: Q04DX003 (ip), vehicle: alcohol 98 % of control | dose: 400.0 mg/kg/injection, schedule: Q04DX003 (ip), vehicle: alcohol 108 % of control

[Cl][Pt+2][Cl].[NH-]c1ccc(Cl)cc1[NH-]
inactive: dose: 25.0 mg/kg/injection, schedule: Q04DX003 (ip), vehicle: saline 113 % of control | [13] 105 % of control and 108 % of control | dose: 800.0 mg/kg/injection, schedule: Q04DX003 (ip), vehicle: saline 103 % of control
active: dose: 12.5 mg/kg/injection, schedule: Q04DX003 (ip), vehicle: saline 178 % of control

CC/C=C(\C)CC(C)O (stereo unspecified)
inactive: dose: 200.0 mg/kg/injection, schedule: Q04DX002 (ip), vehicle: saline with Tween-80 90 % of control | dose: 400.0 mg/kg/injection, schedule: Q04DX002 (ip), vehicle: saline with Tween-80 90 % of control

CC(=O)Oc1cc2c[n+](C)c3c4cc(OC(C)=O)c(OC(C)=O)cc4ccc3c2cc1OC(C)=O
inactive: dose: 20.0 mg/kg/injection, schedule: Q01DX009 (ip), vehicle: saline 101 % of control | dose: 40.0 mg/kg/injection, schedule: Q01DX009 (ip), vehicle: saline 109 % of control | dose: 80.0 mg/kg/injection, schedule: Q01DX009 (ip), vehicle: saline 104 % of control | dose: 120.0 mg/kg/injection, schedule: Q01DX009 (ip), vehicle: saline 91 % of control

CCN(CC)CCCC(C)Nc1cc(N)nc2nc(-c3ccc(Br)cc3)cnc12 (stereo unspecified)
inactive: dose: 75.0 mg/kg/injection, schedule: Q01DX001 (ip), vehicle: saline 106 % of control | dose: 150.0 mg/kg/injection, schedule: Q01DX001 (ip), vehicle: saline 101 % of control

CCCCCCCCP(=O)(CCCCCC)CCCCCC
inactive: dose: 100.0 mg/kg/injection, schedule: Q01DX001 (ip), vehicle: saline with Tween-80 97 % of control | dose: 200.0 mg/kg/injection, schedule: Q01DX001 (ip), vehicle: saline with Tween-80 101 % of control | dose: 400.0 mg/kg/injection, schedule: Q01DX001 (ip), vehicle: saline with Tween-80 111 % of control

C/C=C(\C)C(=O)Nc1ccc(Cl)c(Cl)c1
inactive: dose: 222.0 mg/kg/injection, schedule: Q01DX Z (ip), vehicle: methylcellulose (MC) 93 % of control | dose: 333.0 mg/kg/injection, schedule: Q01DX Z (ip), vehicle: methylcellulose (MC) 90 % of control | dose: 500.0 mg/kg/injection, schedule: Q01DX Z (ip), vehicle: methylcellulose (MC) 98 % of control

CCCCC(C#N)(C(=O)OCC)C(C)(C)C (stereo unspecified)
inactive: dose: 100.0 mg/kg/injection, schedule: Q01DX009 (ip), vehicle: saline 105 % of control | [13] 96 % of control | dose: 200.0 mg/kg/injection, schedule: Q01DX009 (ip), vehicle: saline 92 % of control | dose: 200.0 mg/kg/injection, schedule: Q04DX003 (ip), vehicle: saline 97 % of control | dose: 400.0 mg/kg/injection, schedule: Q01DX009 (ip), vehicle: saline 101 % of control | dose: 400.0 mg/kg/injection, schedule: Q04DX003 (ip), vehicle: saline 96 % of control

CC(C)(C)NC(=O)Nc1ccc(Cl)c(Cl)c1
inactive: dose: 100.0 mg/kg/injection, schedule: Q01DX001 (ip), vehicle: saline 97 % of control | dose: 200.0 mg/kg/injection, schedule: Q01DX001 (ip), vehicle: saline 100 % of control | dose: 400.0 mg/kg/injection, schedule: Q01DX001 (ip), vehicle: saline 95 % of control
